Patent publication US9994594B2, “Inhibitors of arginase and their therapeutic applications” (MARS, INCORPORATED, priority 2010, dated 2018)
Counter-ions that a name gives are not always drawn.

Assays:
human arginase I (ARG I) = target: T1, human arginase I (ARG I) (Homo sapiens, UniProt P05089); assay: Inhibition of arginase I, spectrophotometric urea assay at 530 nm; assay type: biochemical; conditions: Formula I compounds, Table 2; read-out: Potency (ARG I)
T1 sequence (P05089 1-322): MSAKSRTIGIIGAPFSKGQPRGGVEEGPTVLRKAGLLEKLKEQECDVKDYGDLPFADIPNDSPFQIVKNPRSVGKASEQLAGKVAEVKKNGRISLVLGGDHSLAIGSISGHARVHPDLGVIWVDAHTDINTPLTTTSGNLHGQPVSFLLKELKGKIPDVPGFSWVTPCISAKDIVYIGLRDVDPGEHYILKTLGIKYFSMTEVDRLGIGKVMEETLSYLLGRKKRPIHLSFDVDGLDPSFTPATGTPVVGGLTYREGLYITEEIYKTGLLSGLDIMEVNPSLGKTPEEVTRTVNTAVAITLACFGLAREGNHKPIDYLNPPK
Method in brief: (§1)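 IC50 was derived by regression of OD530 normalized to uninhibited-enzyme controls against log concentration. Urea from 60-min, 37 °C turnover of L-arginine with manganese sulfate was detected after acid o-phthaldialdehyde/primaquine quench and 10 min colour development. Arginase I and II came from 100 ng/ml stocks in pH 7.4 phosphate with ovalbumin.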

arginase II (ARG II) = target: T2, arginase II (ARG II) (Homo sapiens, UniProt P78540); assay: Inhibition of arginase II, spectrophotometric urea assay at 530 nm; assay type: biochemical; conditions: Formula I compounds, Table 2; read-out: Potency (ARG II)
T2 sequence (P78540 23-354): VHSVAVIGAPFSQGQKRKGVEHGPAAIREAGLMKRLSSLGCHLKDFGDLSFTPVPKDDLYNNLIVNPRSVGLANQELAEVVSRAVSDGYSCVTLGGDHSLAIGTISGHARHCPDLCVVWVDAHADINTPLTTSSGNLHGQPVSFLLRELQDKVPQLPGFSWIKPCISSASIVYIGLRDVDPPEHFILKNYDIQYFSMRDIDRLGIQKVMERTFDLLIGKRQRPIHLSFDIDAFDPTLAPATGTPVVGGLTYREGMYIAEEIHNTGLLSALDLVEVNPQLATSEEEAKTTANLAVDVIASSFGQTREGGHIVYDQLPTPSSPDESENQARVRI
Method in brief: as §1

| IC50 (human arginase I (ARG I)) [nM] | IC50 (arginase II (ARG II)) [nM] | Compound |
| --- | --- | --- |
| 251 to 1000 | 1000 to 2000 | NC(CCCCB(O)O)(CCN1CCc2ccsc2C1)C(=O)O (stereo not drawn) [compound 62, 2-amino-6-borono-2-(2-(4,5-dihydrothieno[2,3-c]pyridin-6(7H)-yl)ethyl)hexanoic acid dihydrochloride] |
| 0.1 to 250 | 0.1 to 250 | NC(CCCCB(O)O)(CCNCCCc1ccc(F)c(F)c1)C(=O)O (stereo not drawn) [compound 63, 2-amino-6-borono-2-(2-(3-(3,4-difluorophenyl)propylamino)ethyl)hexanoic acid dihydrochloride] |
| 0.1 to 250 | 0.1 to 250 | NC(CCCCB(O)O)(CCNCCCc1cc(C(F)(F)F)ccc1Cl)C(=O)O (stereo not drawn) [compound 64, 2-amino-6-borono-2-(2-(3-(2-chloro-5-(trifluoromethyl)phenyl)propylamino)ethyl)hexanoic acid dihydrochloride] |
| 0.1 to 250 | 0.1 to 250 | COc1cccc(CCCNCCC(N)(CCCCB(O)O)C(=O)O)c1 (stereo not drawn) [compound 65, 2-amino-6-borono-2-(2-(3-(3-methoxyphenyl)propylamino)ethyl)hexanoic acid dihydrochloride] |
| 0.1 to 250 | 0.1 to 250 | NC(CCCCB(O)O)(CCNCCCc1ccc(Cl)cc1Cl)C(=O)O (stereo not drawn) [compound 66, 2-amino-6-borono-2-(2-(3-(2,4-dichlorophenyl)propylamino)ethyl)hexanoic acid dihydrochloride] |
| 251 to 1000 | 251 to 1000 | CC(C)(C)NCCC(N)(CCCCB(O)O)C(=O)O (stereo not drawn) [compound 67, 2-amino-6-borono-2-(2-(tert-butylamino)ethyl)hexanoic acid dihydrochloride] |
| 251 to 1000 | 251 to 1000 | NC(CCCCB(O)O)(CCNC1CC1)C(=O)O (stereo not drawn) [compound 68, 2-amino-6-borono-2-(2-(cyclopropylamino)ethyl)hexanoic acid dihydrochloride] |
| 0.1 to 250 | 0.1 to 250 | COc1ccc(CNCCC(N)(CCCCB(O)O)C(=O)O)cc1 (stereo not drawn) [compound 69, 2-amino-6-borono-2-(2-(4-methoxybenzylamino)ethyl)hexanoic acid dihydrochloride] |
| 0.1 to 250 | 251 to 1000 | NC(CCCCB(O)O)(CCNCc1ccccc1)C(=O)O (stereo not drawn) [compound 70, 2-amino-2-(2-(benzylamino)ethyl)-6-boronohexanoic acid dihydrochloride] |
| 2000 to 5000 | 2000 to 5000 | CN(C)CCN(C)CCC(N)(CCCCB(O)O)C(=O)O (stereo not drawn) [compound 71, 2-amino-6-borono-2-(2-((2-(dimethylamino)ethyl)(methyl)amino)ethyl)hexanoic acid trihydrochloride] |
| 251 to 1000 | 251 to 1000 | NC(CCCCB(O)O)(CCNC1CCCC1)C(=O)O (stereo not drawn) [compound 72, 2-amino-6-borono-2-(2-(cyclopentylamino)ethyl)hexanoic acid dihydrochloride] |
| 0.1 to 250 | 251 to 1000 | NCCN(CCC(N)(CCCCB(O)O)C(=O)O)Cc1ccccc1 (stereo not drawn) [compound 73, 2-amino-2-(2-((2-aminoethyl)(benzyl)amino)ethyl)-6-boronohexanoic acid trihydrochloride] |
| 2000 to 5000 | > 5000 | CC(C)Oc1ccc(CN(C)CCC(N)(CCCCB(O)O)C(=O)O)cc1 (stereo not drawn) [compound 74, 2-amino-6-borono-2-(2-((4-isopropoxybenzyl)(methyl)amino)ethyl)hexanoic acid dihydrochloride] |
| 251 to 1000 | 1000 to 2000 | NC(CCCCB(O)O)(CCN1CCC1)C(=O)O (stereo not drawn) [compound 75, 2-amino-2-(2-(azetidin-1-yl)ethyl)-6-boronohexanoic acid dihydrochloride] |
| > 5000 | > 5000 | NC(CCCCB(O)O)(CCN1CCN(c2ccccc2)CC1)C(=O)O (stereo not drawn) [compound 76, 2-amino-6-borono-2-(2-(4-phenylpiperazin-1-yl)ethyl)hexanoic acid dihydrochloride] |
| 2000 to 5000 | > 5000 | COCCN1CCN(CCC(N)(CCCCB(O)O)C(=O)O)CC1 (stereo not drawn) [compound 77, 2-amino-6-borono-2-(2-(4-(2-methoxyethyl)piperazin-1-yl)ethyl)hexanoic acid trihydrochloride] |
| 2000 to 5000 | 2000 to 5000 | CN(CCC(N)(CCCCB(O)O)C(=O)O)CC(O)c1ccccc1 (stereo not drawn) [compound 78, 2-amino-6-borono-2-(2-((2-hydroxy-2-phenylethyl)(methyl)amino)ethyl)hexanoic acid dihydrochloride] |
| 2000 to 5000 | > 5000 | NC(CCCCB(O)O)(CN1CCCCC1)C(=O)O (stereo not drawn) [compound 79, 2-amino-6-borono-2-(piperidin-1-ylmethyl)hexanoic acid] |

| IC50 (human arginase I (ARG I)) [nM] | IC50 (arginase II (ARG II)) [nM] | Compound |
| --- | --- | --- |
| 2000 to 5000 | > 5000 | CN1CCN(CC(N)(CCCCB(O)O)C(=O)O)CC1 (stereo not drawn) [compound 80, 2-amino-6-borono-2-((4-methylpiperazin-1-yl)methyl) hexanoic acid trihydrochloride] |
| 2000 to 5000 | 2000 to 5000 | CCCNCC(N)(CCCCB(O)O)C(=O)O (stereo not drawn) [compound 83, 2-amino-6-borono-2-((propylamino)methyl)hexanoic acid dihydrochloride] |
| 2000 to 5000 | > 5000 | NC(CCCCB(O)O)(CNCc1ccccc1)C(=O)O (stereo not drawn) [compound 84, 2-amino-2-((benzylamino)methyl)-6-boronohexanoic acid] |
| 2000 to 5000 | 2000 to 5000 | C[C@@H](O)CNCC(N)(CCCCB(O)O)C(=O)O (stereo partly drawn) [compound 85, 2-amino-6-borono-2-(((R)-2-hydroxypropylamino)methyl)hexanoic acid dihydrochloride] |
| 2000 to 5000 | 2000 to 5000 | CCCCNCC(N)(CCCCB(O)O)C(=O)O (stereo not drawn) [compound 86, 2-amino-6-borono-2-((butylamino)methyl)hexanoic acid dihydrochloride] |
| 1000 to 2000 | 1000 to 2000 | NC(CCCCB(O)O)(CNC1CCOCC1)C(=O)O (stereo not drawn) [compound 87, 2-amino-6-borono-2-((tetrahydro-2H-pyran-4-ylamino)methyl)hexanoic acid dihydrochloride] |
| 2000 to 5000 | 1000 to 2000 | CC(C)CC(CO)NCC(N)(CCCCB(O)O)C(=O)O [compound 88, 2-amino-6-borono-2-(((S)-1-hydroxy-4-methylpentan-2-ylamino)methyl)hexanoic acid dihydrochloride] |
| 2000 to 5000 | 2000 to 5000 | C[C@H](NCC(N)(CCCCB(O)O)C(=O)O)c1ccccc1 (stereo partly drawn) [compound 90, 2-amino-6-borono-2-(((S)-1-phenylethylamino)methyl)hexanoic acid dihydrochloride] |
| 2000 to 5000 | 2000 to 5000 | C[C@H](CO)NCCC(N)(CCCCB(O)O)C(=O)O (stereo partly drawn) [compound 91] |
| > 5000 | > 5000 | NC(CCCCB(O)O)(CCOc1ccc(Cl)cc1)C(=O)O (stereo not drawn) [compound 92, 2-amino-6-borono-2-(2-(4-chlorophenoxy)ethyl)hexanoic acid hydrochloride] |
| > 5000 | > 5000 | COc1ccc(OCCC(N)(CCCCB(O)O)C(=O)O)cc1 (stereo not drawn) [compound 93, 2-amino-6-borono-2-(2-(4-methoxyphenoxy)ethyl)hexanoic acid hydrochloride] |
| > 5000 | > 5000 | NC(CCCCB(O)O)(CCOc1ccc(Cl)cc1Cl)C(=O)O (stereo not drawn) [compound 94, 2-Amino-6-borono-2-[2-(2,4-dichlorophenoxy)-ethyl]-hexanoic acid hydrochloride] |
| 2000 to 5000 | 2000 to 5000 | NC(CCCCB(O)O)(CCOc1cccc(C(F)(F)F)c1)C(=O)O (stereo not drawn) [compound 95, 2-Amino-6-borono-2-[2-(3-trifluoromethylphenoxy)-ethyl]-hexanoic acid hydrochloride] |
| 1000 to 2000 | 1000 to 2000 | NC(CCCCB(O)O)(CCCOc1ccc(Cl)cc1)C(=O)O (stereo not drawn) [compound 96, 2-Amino-6-borono-2-[3-(4-chlorophenoxy)-propyl]-hexanoic acid hydrochloride] |
| 2000 to 5000 | > 5000 | CC(N)(CCCCB(O)O)C(=O)O (stereo not drawn) [compound 97, 2-Amino-6-borono-2-methylhexanoic acid hydrochloride] |
| 2000 to 5000 | 2000 to 5000 | NC(CCCCB(O)O)(Cc1cnc[nH]1)C(=O)O (stereo not drawn) [compound 102, 2-((1H-imidazol-5-yl)methyl)-2-amino-6-boronohexanoic acid dihydrochloride] |
| > 5000 | > 5000 | NC(CCCCB(O)O)(CC(=O)O)C(=O)O (stereo not drawn) [compound 106, 2-amino-2-(4-boronobutyl)succinic acid hydrochloride] |
| > 5000 | > 5000 | CC(C)n1cncc1CC(N)(CCCCB(O)O)C(=O)O (stereo not drawn) [compound 107, 2-amino-6-borono-2-((1-isopropyl-1H-imidazol-5-yl)methyl)hexanoic acid dihydrochloride] |
